From patent publication US8241862B2, “Perinucleolar compartment as a cancer marker” (Northwestern University, priority 2002, dated 2012)
*1 amine or outer side, *2 acyl side, *3 side chain or, on linkers, in order; H or OH if unused. Where a SMILES comes first, the peptide text is derived from it. Bridges are numbered along the chain shown (N, C = ends). Roman numbers before positions name the chains, in order. [ ]: non-standard residue; d: D form. Actinocin(9to1) = Cc1c2oc3c(C)ccc(C(=O)[*:1])c3nc-2c(C(=O)[*:2])c(N)c1=O; NMeV = CN[C@H](C(=O)O)C(C)C; Sar = CNCC(=O)O

System: HeLa cells
Assay: Effect of chemotherapeutic drugs on PNC prevalence in cultured HeLa cells
Type: cell-based, human
Protocol: Cultured HeLa cells, whose PNC prevalence is above 95%, were treated with various chemotherapeutic drugs.

For `O=c1[nH]cc(F)c(=O)[nH]1` [5′-fluorouracil], the “Effect on PNC” value (1 to 5 μg/ml, 16 hours) was “No effect on PNC structure”.
In the case of `COc1cc(NS(C)(=O)=O)ccc1Nc1c2ccccc2nc2ccccc12` [AMSA], the “Effect on PNC” value (5 to 40 μM, 16 hours) was “No effect on PNC structure”.
In the case of `Cc1c2oc3c(C)ccc(C(=O)N[C@@H]4C(=O)N[C@H](C(C)C)C(=O)N5CCC[C@H]5C(=O)N(C)CC(=O)N(C)[C@@H](C(C)C)C(=O)O[C@@H]4C)c3nc-2c(C(=O)N[C@@H]2C(=O)N[C@H](C(C)C)C(=O)N3CCC[C@H]3C(=O)N(C)CC(=O)N(C)[C@@H](C(C)C)C(=O)O[C@@H]2C)c(N)c1=O` [Actinomycin D] (I: T[dV]P[Sar][NMeV] / II: T[dV]P[Sar][NMeV]; ester I:1-I:C, II:1-II:C; linker I:N-II:N via Actinocin(9to1)), the “Effect on PNC (cell negative for PNC)” value (0.04 μg/ml, 2 hours) was 100% cell negative for PNC.
`COc1cccc2c1C(=O)c1c(O)c3c(c(O)c1C2=O)C[C@@](O)(C(=O)CO)C[C@@H]3O[C@H]1C[C@H](N)[C@H](O)[C@H](C)O1` [Adriamycin] was tested, and the “Effect on PNC” value (5 to 40 μM, 16 hours) was “No effect on PNC structure”.
`CC[C@@]1(O)C(=O)OCc2c1cc1n(c2=O)Cc2cc3ccccc3nc2-1` [Campothecin] was tested, and the “Effect on PNC (cell negative for PNC)” value (1.25 to 2.5 μg/ml, 1 hour) was 100% cell negative for PNC.
In the case of `N.N.[Cl][Pt][Cl]` [Cisplatin], the “Effect on PNC (cell negative for PNC)” value (0.5 μg/ml, 5 hours) was 95% cell negative for PNC.
With `Nc1ccn([C@@H]2O[C@H](CO)[C@@H](O)[C@@H]2O)c(=O)n1` [Cytosine Arabinoside] the “Effect on PNC” value (10 to 40 μg/ml, 16 hours) was “No effect on PNC structure”.
For `NC(=O)NO` [Hydroxyurea], the “Effect on PNC” value (0.5 to 1.5 μM, 16 hours) was “No effect on PNC structure”.
In the case of `CN(Cc1cnc2nc(N)nc(N)c2n1)c1ccc(C(=O)N[C@@H](CCC(=O)O)C(=O)O)cc1` [Methotrexate], the “Effect on PNC (cells negative for PNC)” value (0.5 μg/ml, 16 hours) was 30% cells negative for PNC, the “Effect on PNC (cells negative for PNC)” value (1.0 μg/ml, 16 hours) was 60% cells negative for PNC and the “Effect on PNC (cells negative for PNC)” value (2.5 μg/ml, 16 hours) was 80% cells negative for PNC. The “Response of PNC prevalence to dose” value (0.5 to 2.5 μg/ml, 16 hours) was “dose-dependent”.
In the case of `CC(=O)O[C@H]1C(=O)[C@@]2(C)[C@H]([C@H](OC(=O)c3ccccc3)[C@]3(O)C[C@H](OC(=O)[C@H](O)[C@@H](NC(=O)c4ccccc4)c4ccccc4)C(C)=C1C3(C)C)[C@]1(OC(C)=O)CO[C@@H]1C[C@@H]2O` [Paclitaxel], the “Effect on PNC” value (5 to 40 μM, 16 hours) was “No effect on PNC structure”.
For `CC[C@]1(O)C[C@H]2CN(CCc3c([nH]c4ccccc34)[C@@](C(=O)OC)(c3cc4c(cc3OC)N(C=O)[C@H]3[C@@](O)(C(=O)OC)[C@H](OC(C)=O)[C@]5(CC)C=CCN6CC[C@]43[C@@H]65)C2)C1` [Vincristine], the “Effect on PNC” value (5 to 40 μM, 16 hours) was “No effect on PNC structure”.
